Source: PubChem BioAssay (NCI)
Where “and” joins values, the source holds several entries; their conditions need not be identical. Equal entries are not always repeated.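 Each compound was tested at five concentrations against cells in 96-well plates for 48 hours. GI50 marks 50% less growth. TGI is the concentration that stops growth completely.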

Key:
Assay in all cases: NCI tumour cell line growth inhibition, 48 h
[1] = test system: HT29 colon
[2] = test system: HL-60(TB) leukemia
[3] = test system: A549 NSCLC
[4] = test system: U251 CNS
[5] = test system: HCT-15 colon
[6] = test system: DU-145 prostate
[7] = test system: SNB-75 CNS
[8] = test system: OVCAR-8 ovarian
[9] = test system: KM12 colon
[10] = test system: SK-MEL-28 melanoma
[11] = test system: K-562 leukemia
[12] = test system: HCT-116 colon
[13] = test system: MDA-MB-231 breast
[14] = test system: SK-MEL-2 melanoma
[15] = test system: SK-OV-3 ovarian
[16] = test system: MOLT-4 leukemia
[17] = test system: MCF7 breast
[18] = test system: NCI-H460 lung
[19] = test system: SNB-19 CNS

| SMILES | TGI [1] | TGI [2] [µM] | TGI [3] [µM] | TGI [4] [µM] | TGI [5] [µM] | TGI [6] [µM] | TGI [7] [µM] | TGI [8] [µM] | TGI [9] | TGI [10] [µM] | TGI [11] [µM] | TGI [12] [µM] | TGI [13] [µM] | TGI [14] [µM] | TGI [15] [µM] | TGI [16] [µM] | TGI [17] [µM] | TGI [18] [µM] | TGI [19] [µM] | GI50 [13] [µM] |
| --- | --- | --- | --- | --- | --- | --- | --- | --- | --- | --- | --- | --- | --- | --- | --- | --- | --- | --- | --- | --- |
| O=C(O)c1ccccc1/C=C1\Cc2cc3c(cc2C1=O)CCC3 | 49.1 µM | 27.1 | > 100 | 94.3 | 74.8 | > 100 | 25 | > 100 | > 100 µM | > 100 | 51.7 | 76.6 | 51.2 | 55.4 | > 100 | 46.5 | 68.5 | 81.9 | > 100 |  |
| CCN(CC)/[N+]([O-])=N/OS(=O)(=O)N(C)C | > 100 µM | > 100 | > 100 | > 100 | > 100 | > 100 | > 100 | > 100 | > 100 µM | > 100 | > 100 | > 100 | > 100 |  | > 100 | > 100 | > 100 | > 100 | > 100 |  |
| Cc1cnc2[nH]c(-c3cccc4ccccc34)cc(=O)c2c1 | 0.0121 µM and 0.0273 µM | 0.000577 | > 100 | 0.0129 | 0.935 | > 100 |  | 0.108 | 0.25 µM and 1.45 µM | > 100 | > 100 | > 100 |  | > 100 | 0.0952 | > 100 | 41.6 | > 100 | > 100 | 0.0119 |
| CC(C)(C)OC(=O)/N=C/c1c(O)c2ccccc2oc1=O | > 100 µM | > 100 | > 100 | > 100 | > 100 | > 100 | > 100 | > 100 | > 100 µM | > 100 | > 100 | > 100 | 86 | 45.2 | 0.0852 | > 100 | > 100 | > 100 | > 100 |  |
| Cc1[nH]c(=O)c2oc3cc4ccccc4cc3c2c1C(=O)O | > 10 µM | > 10 | > 10 | > 10 | > 10 | > 10 | > 10 | > 10 | > 10 µM |  |  |  | > 10 | > 10 | > 10 |  | > 10 | > 10 | > 10 |  |
| N#CCC(=O)N/N=C\C(O)C(O)C(O)C(O)CO (stereo not drawn) | > 100 µM | > 100 | > 100 |  | > 100 | > 100 | > 100 | > 100 | > 100 µM | > 100 | > 100 |  | > 100 | > 100 | > 100 | > 100 | > 100 | > 100 | > 100 |  |
| Cc1cccc(C)c1NC(=O)C(=O)CC(=O)c1sc(Nc2c(C)cccc2C)nc1C | > 100 µM | > 100 | > 100 | > 100 | > 100 | > 100 | > 100 | > 100 | > 100 µM |  | > 100 | > 100 | > 100 | > 100 | > 100 | > 100 | > 100 | > 100 | > 100 |  |
| C=C1CC[C@@H]2[C@](C)(COC(=O)CCC(=O)OC)CCC[C@@]2(C)[C@@H]1CCC1=CC(=O)OC1 | > 100 µM | 51.2 | > 100 | > 100 | > 100 | > 100 |  | > 100 | > 100 µM | > 100 | > 100 | > 100 | > 100 | > 100 | > 100 | 47.7 | > 100 | > 100 | > 100 |  |
| CC1=C(C(=O)NNC(=O)C[N+](C)(C)C)CC(C(=O)NNC(=O)C[N+](C)(C)C)=C(C)N1 | > 100 µM | > 100 | > 100 | > 100 | > 100 | > 100 |  | > 100 | > 100 µM |  | > 100 | > 100 | > 100 | > 100 | > 100 | > 100 | > 100 | > 100 | > 100 |  |
| Fc1ccc2c(c1)SC1=Nc3sc4cc(F)ccc4[n+]3CN12 | > 100 µM | 0.184 | 58.3 | 46.3 | > 100 | > 100 | 36.8 | 38 |  | > 100 | 43.9 | > 100 | 44.3 | 55 | > 100 |  | > 100 | > 100 | 38.4 |  |
| CC(C)C(=O)Cc1ccc2ccccc2n1 | > 100 µM | > 100 | > 100 | > 100 | > 100 | > 100 | > 100 | > 100 | > 100 µM | > 100 |  | > 100 | > 100 | > 100 | > 100 |  | > 100 | > 100 | > 100 |  |
| COC(=O)C1=C(OC)C(=P2(c3ccccc3)CC(c3ccccc3)=C2c2ccccc2)C(C(=O)OC)=C1C(=O)OC (stereo not drawn) |  | 3.22 | > 100 | > 100 | > 62.7 | > 100 | > 100 | > 100 | > 100 µM | > 100 |  | > 100 | > 100 | > 100 | > 100 | 13.8 | > 82.6 | > 81.7 | > 100 |  |
| O=[N+]([O-])c1ccc2c3c1[C@@H]1O[C@@H]1c1cccc(c1-3)[C@@H]1O[C@H]21 | 14.7 µM | 7.58 | 31 | 11.8 | 6.05 | 8.72 | 17.5 | 4.46 | 10.1 µM | > 22.1 | > 100 | 5.95 | 15.3 | > 23.7 | 44.3 | > 100 | > 100 |  | > 58.5 |  |
